Where two headings read alike, the source gives them in different places.
Columns and labels:
[1] = tested on: P. falciparum female gametocytes; assay: P. falciparum Dual Gamete Formation Assay (PfDGFA), female readout (Pfs25-positive female gametes); format: cell-based, Plasmodium falciparum NF54; conditions: for IC50: this study, read-out: Pf DGFA IC50 FEM
Method in brief: (§1)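 NF54 mature gametocytes (d14), cpd 24 h 37°C hypoxic gas; trigger: xanthurenic acid ookinete medium + Cy3 anti-Pfs25, 4°C 4 min → 28°C 4 min. Male: exflagellation centres, brightfield x6. Female: Pfs25+ gametes, fluorescence, +24 h 28°C dark.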

[2] = tested on: P. falciparum male gametocytes; assay: P. falciparum Dual Gamete Formation Assay (PfDGFA), male readout (exflagellation); format: cell-based, Plasmodium falciparum NF54; conditions: for IC50: this study, read-out: Pf DGFA IC50 MALE
Method in brief: as §1

[3] = tested on: P. falciparum female gametocytes; parameters: method as in Miguel-Blanco et al 2017; conditions: ref Miguel-Blanco et al 2017; read-out: Pf female gametogenesis FGAA IC50; cited from earlier work
[4] = tested on: P. falciparum female gametocytes; assay: P. falciparum Female Gametocyte Activation Assay (PfFGAA); format: cell-based, Plasmodium falciparum; conditions: Mean TOX HepG2 over FGAA IC50; GREEN = >10-fold; RED = <10-fold
[5] = tested on: P. falciparum protein kinase G (PfPKG); conditions: cited from earlier work
[6] = tested on: P. berghei ookinete development; assay: P. berghei Ookinete Development Assay (PbODA); format: cell-based, Plasmodium berghei; conditions: Mean TOX HepG2 over Pb ODA value; GREEN = >10-fold; RED = <10-fold

IC50 [1] [nM] | IC50 [2] [nM] | Compound | Cytotox ratio Pf Female [1] | Cytotox ratio Pf Male [2] | IC50 [3] [nM] | Cytotox ratio Pf FGAA [4] | activity against recombinant PfPKG [5] | Cytotox ratio Pb Ookinete [6]
1020 | 1630 | CC(C)(CNC(=O)[C@H]1CCCCN1)c1nc(-c2ccc(Cl)c(O)c2)c(-c2ccncc2)[nH]1.Cl [TC04] | 39.8 | 24.9 | 530 | 76.7 |  | 
430 | 850 | Cl.NCC1(c2nc(-c3ccc(Cl)c(O)c3)c(-c3ccncc3)[nH]2)CCCCC1 [TC41] | 53.2 | 26.9 | 210 | 108.8 |  | 14844.9

Compound | IC50 [1] [nM] | IC50 [2] [nM] | Cytotox ratio Pf Female [1] | Cytotox ratio Pf Male [2] | IC50 [3] [nM] | Cytotox ratio Pf FGAA [4] | activity against recombinant PfPKG [5] | Cytotox ratio Pb Ookinete [6]
CC(C)(CN)c1nc(-c2ccc(Br)c(O)c2)c(-c2ccncc2)[nH]1.Cl [TC13] | 570 | 1480 | 112.9 | 43.5 | 840 | 76.6 | had activity | 38479.3
